# Experimental data as given in PubChem BioAssay AID1053144 (Broad Institute, 2014).
# Tested on: NPC TCF/LEF luciferase reporter, Wnt3a EC25, 24 h
# Assay: TCF/LEF reporter activation in neural progenitors – cell-based, iPS-derived NPC, luciferase, Wnt3a, cherry-pick, dose response (AID 1053144);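 further: Wnt3a stimulus is conditioned medium from Wnt3a-transfected mouse L cells at 5% in well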
row,SMILES,AC30
1,Cc1ccc(COc2ccc3c(c2)OCO3)cc1,17 µM
2,COc1ccc(-c2ccc3ccccc3n2)cc1OC,9.49 µM
3,Cn1c(CCNC(=O)c2ccco2)nc2cc(NC(=O)c3ccco3)ccc21,11.8 µM
4,COc1ccccc1C(=O)O/N=C(\N)c1ccc(Cl)cc1,6.87 µM
5,COc1ccc(CCNC(=O)c2cc(-c3ccco3)on2)cc1OC,11.4 µM
6,CCCC(=O)Nc1ccc(C(=O)COC(=O)C2CC2)cc1,5.63 µM
7,O=C(NC1CCCC1)c1cc(-c2ccccc2)on1,8.71 µM
8,COc1ccc2[nH]c(=O)c(CNc3ccccc3C)cc2c1,17.3 µM
9,COc1ccccc1OCc1cc(C(=O)N(C)CCC2CCOCC2)no1,9.94 µM
10,O=c1c2cccc(Cl)c2nc2n1Cc1ccccc1-2,16.7 µM
11,O=C1C=C(c2ccc3[nH]ccc3c2)CCC1,10.1 µM
12,Cc1cc(O)c(NC(=O)c2cccc([N+](=O)[O-])c2)cc1C,11.2 µM
13,Cc1ccc(Nc2ncccc2C(N)=O)cc1[N+](=O)[O-],5.42 µM
14,O=C(NCC1CCCO1)c1cc(-c2ccc(F)cc2)no1 (stereo not given),15.9 µM
15,CC1CC1C(=O)OCc1cc(=O)n2cc(Br)ccc2n1 (stereo not given),9.48 µM
16,N/C(=N\OC(=O)c1ccco1)c1ccc(Cl)cc1,11.8 µM
17,CCc1ccccc1-n1c(SCC(=O)N2CCCC2)nnc1-c1ccccn1,8.48 µM
18,O=C(Nc1ncccc1O)c1ccc(Oc2ccccc2)cc1,12.3 µM
19,Nc1c2ccccc2nc2ccccc12,5.99 µM
20,COc1cccc(-c2nnc(SCC(=O)N(C(C)C)C(C)C)o2)c1,20.7 µM
21,O=C(Nn1cnc2ccccc2c1=O)c1c(F)cccc1F,18.8 µM
22,O=C(Nc1ncccc1O)c1ccc2c(c1)OCO2,7.75 µM
23,O=c1cc(-c2cccs2)oc2ccc(Cl)cc12,5.83 µM
24,O=C(Nc1ccccc1O)c1ccc(NC(=O)C2CC2)cc1,5.37 µM
25,Cc1cc(N(C)C)ccc1N=Nc1ccc2ncccc2c1,2.2 µM
26,Cc1[nH]c2ccccc2c1/C=N/Nc1nc2ccccc2[nH]1,5.61 µM

row,SMILES,AC30
1,Cc1cccc(NC(=O)c2ccccn2)c1C,11.4 µM
2,Nc1ccc2nc(-c3ccccc3)cnc2c1,8.28 µM
3,CCOc1ccc(CCNC(=O)/C=C/c2ccco2)cc1OCC,13.5 µM
4,Fc1ccccc1-c1nc(-c2ccncc2)no1,2.79 µM
5,O=C(Nc1ccc(NC(=O)C2CCCCC2)nc1)c1cccs1,10.1 µM
6,COc1ccc(C(=O)NC2=NCCS2)cc1,9.19 µM
7,O=c1oc2ccccc2cc1-c1nc2ccccc2o1,8.58 µM
8,Cc1ccc2nc(-c3ccc(NS(=O)(=O)c4ccc(F)cc4)cc3)sc2c1,4.78 µM
9,CC(=O)N(C)c1ccc(NC(=O)c2ccco2)cc1,11.6 µM
10,Cc1ccc2nc(-c3ccc(NC(=O)CSCC(=O)O)cc3)sc2c1,2.04 µM
11,CSc1ccc(C(=O)/C=C/c2ccc(N)cc2)cc1,6.32 µM
12,O=C(COc1ccc(F)cc1Br)N1CCc2ccccc21,4.78 µM
13,CCOCC(=O)Nc1nc2ccc(OCC)cc2s1,11.8 µM
14,Cc1cccc(C(=O)OCC(=O)N2CCCCCC2)c1C,12.1 µM
15,O=C(c1cc2ccccc2o1)c1cccs1,8.58 µM
16,CCCc1cc(C(=O)Nc2cccc(C(C)=O)c2)no1,10.5 µM
17,O=C(/C=C/c1ccccc1)c1c[nH]c2ccccc12,4.78 µM
18,Oc1ccccc1-c1nnc(COc2ccc(Cl)cc2Cl)o1,10.5 µM
19,CCCCOC(=O)Nc1ccc(C(=O)OC)cc1,11.7 µM
20,CC(C)c1ccc(NC(=O)c2ccccc2NC(=O)C2CCCCC2C(=O)O)cc1 (stereo not given),15.5 µM
21,COc1ccc(NC(=O)n2ncc3c(C)cccc32)cc1,4.78 µM
22,O=C(NCCN1CCOCC1)c1cc(-c2ccccc2)on1,8.01 µM
23,CCCNC(=O)c1oc2ccc3c(c2c1C)C=CC(C)(C)O3,8.63 µM
24,CCNc1nc(N)c(C(=O)c2ccc(Cl)s2)s1,11.3 µM
25,Cn1c(SCC(=O)c2ccccc2)nnc1-c1ccco1,4.78 µM
26,CN(C)S(=O)(=O)Oc1cccc(C(=O)Nc2cccc(Cl)c2)c1,13 µM

row,SMILES,AC30
1,CCOC(=O)N1CCC(Nc2c(NCCCN3CCN(c4ccc(OC)cc4)CC3)c(=O)c2=O)CC1,19.5 µM
2,COCCNC(=O)c1ccc2c3n(nc2c1)-c1ccc(C)cc1CO3,10.7 µM
3,O=C(O)c1ccc(N=Nc2c(O)[nH]c3cc(Cl)ccc23)cc1,4.78 µM
4,COCCNC(=O)c1cc2c(s1)-c1ccc(Cl)cc1SC2,11.2 µM
5,COc1ccc(/C=C/c2ccncc2)cc1,11.1 µM
6,Cc1csc(=NC(=O)c2ccccc2)n1C,8.72 µM
7,O=C(Nc1ccc(Cl)cc1)OCc1ccccn1,9.15 µM
8,CCn1c(SCC(=O)c2ccc(Cl)cc2)nnc1C(C)C,12.1 µM
9,Cc1ccsc1/C=N\NC(=O)c1ccc2c(c1)OCO2,4.78 µM
10,Cc1ccc2cc(/C=C/C(=O)c3ccco3)c(Cl)nc2c1,16.8 µM
11,Cc1ccc2nc(-c3ccc(NS(=O)(=O)c4c(C)n(C)c(=O)n(C)c4=O)cc3)sc2c1,2.2 µM
12,COc1cccc(NC(=O)c2csc3c2CCCC3)c1,4.78 µM
13,Cc1ccccc1NC(=O)c1cc2ccccn2n1,4.78 µM
14,O=C1Nc2ccccc2S/C1=C/c1cccs1,12.9 µM
15,O=C(O)c1ccc2c(c1)C(=O)N(c1ccc(/C=C/C(=O)c3ccccc3)cc1)C2=O,18.7 µM
16,Cc1cccc(NC(=O)c2c(O)c3ccccc3[nH]c2=O)c1,6.72 µM
17,O=[N+]([O-])c1ccccc1-c1nc(-c2ccc(Br)o2)no1,4.78 µM
18,O=[N+]([O-])c1cccc(-c2nnc(-c3ccccc3F)o2)c1,8.84 µM
19,CC1=NN(c2ccccc2)C(=O)C1N=Nc1ccccc1 (stereo not given),4.78 µM
20,O=c1[nH]c(=O)n([C@H]2C[C@H](O)[C@@H](CO)O2)cc1Br,13.2 µM
21,CCOC(=O)C(NC(=O)c1ccc(F)cc1)(Nc1sc2c(c1C(N)=O)CCC2)C(F)(F)F (stereo not given),16.3 µM
22,CCc1cc2c(=O)[nH]c(-c3ccccn3)nc2s1,10.2 µM
23,O=C(CCc1nnc(C2CCCCC2)o1)N1CCN(c2ccccc2F)CC1,8.97 µM
24,Cc1ccc(/C=N/Nc2nc3ccccc3[nH]2)s1,16.1 µM
25,O=C(Cc1nc2ccccc2[nH]1)c1ccc([N+](=O)[O-])cc1,7.12 µM
26,c1ccc(-c2cc(-c3ccccc3)on2)cc1,4.78 µM

row,SMILES,AC30
1,O=C(COC(=O)c1cccs1)c1ccc2ccccc2c1,9.52 µM
2,O=C(Nc1ccc(Br)cn1)c1ccc(Br)s1,4.78 µM
3,COc1ccc2sc(NC(=O)CC(C)C)nc2c1,13.4 µM
4,Oc1ccc(Br)cc1-c1cc(-c2ccccc2F)[nH]n1,12.9 µM
5,COc1ccc(-c2ccc(SCC(=O)Nc3cc(C)on3)nn2)cc1OC,15.1 µM
6,CCOC(=O)c1ccc(-c2ccc(CO)o2)cc1,17.5 µM
7,O=C(/C=C/c1ccc(O)c(O)c1)c1ccccc1O,8.06 µM
8,O=C(c1ccc(-c2ccc(Cl)cc2Cl)o1)N1CCOCC1,8.53 µM
9,COc1ccc(N2COC3c4cccc5cccc(c45)C32)cc1 (stereo not given),17.8 µM
10,CCOc1ccc(-c2nnc(-c3ccccc3)n2-c2ccccc2)cc1,12.4 µM
11,O=C(O)c1ccc(/C=C(\c2nc3ccccc3[nH]2)c2nc3ccccc3s2)cc1,15.8 µM
12,CC(C)C1COC(c2cccc3ccccc23)=N1 (stereo not given),4.78 µM
13,O=C(NCCO)c1ccc2c3n(nc2c1)-c1ccc(Cl)cc1CO3,12.3 µM
14,COc1ccccc1CNC(=O)COc1ccccc1C(=O)c1cnn(-c2ccccc2)c1,10 µM
15,O=C(/C=C/c1ccco1)Nc1ccc2c(c1)OCO2,12.1 µM
16,Cc1cccc(/C(N)=N/OC(=O)c2ccc(Br)o2)c1,11.7 µM
17,COc1ccc(NC(=O)c2ccccc2NC(=O)C2CCCCC2C(=O)O)cc1 (stereo not given),19.3 µM
18,COC(=O)CCc1sc(Nc2ccccc2)nc1-c1ccc(OC)cc1,12.9 µM
19,O=C(/C=C/c1ccco1)NCCc1ccccc1,5.05 µM
20,c1ccc2c(c1)oc1c(Nc3ccc4c(c3)OCO4)ncnc12,4.78 µM
21,Nc1ccccc1NC(=O)c1ccccc1,8.77 µM
22,O=C(Nc1ncccc1O)c1ccc2c(c1)OCCO2,5.13 µM
23,O=C(OCC(=O)c1ccc(Br)s1)c1ccc(O)cc1,15.8 µM
24,Nc1ccc(N=Nc2ccccc2Cl)c(N)n1,4.42 µM
25,O=C1c2ccccc2C(=O)C1c1ccc(O)cc1,14.7 µM
26,CC(=O)Nc1sc2c(c1-c1nc3ccccc3s1)CN(C(C)C)CC2,2.43 µM

row,SMILES,AC30
1,O=C(NCCCn1ccnc1)c1cc(-c2ccccc2)on1,7.41 µM
2,O=C(Nc1ccc2nc(-c3ccccc3)[nH]c2c1)c1ccco1,16.9 µM
3,CC1CCc2c(C(=O)Nc3ccccn3)csc2C1 (stereo not given),4.65 µM
4,O=c1/c(=C\c2ccc(F)cc2)sc2n1CCCN=2,12.5 µM
5,COc1cccc(-c2csc(NC(=O)C3CC3)n2)c1,13.9 µM
6,Cc1ccc(OCC(=O)Nc2ccccc2C(N)=O)cc1,7.04 µM
7,Cc1ccc(C(=O)Nc2cccc(-c3ccc(N4CCOCC4)nn3)c2)cc1[N+](=O)[O-],9.12 µM
8,CSc1ccccc1C(=O)Nc1ccc2c(c1)CCC2,3.13 µM
9,CC1(C)CC(=O)C2=C(C1)c1c(ccc3ccccc13)NC2c1ccco1 (stereo not given),14.8 µM
10,CCOc1cc(/C=N/NC(=O)N/N=C/c2ccc(O)c(OCC)c2)ccc1O,13.1 µM
11,O=C(C=Cc1ccco1)c1ccc2ccccc2c1,11.2 µM
12,Nc1ccc(-c2nc3cc([N+](=O)[O-])ccc3o2)cc1,4.78 µM
13,O=C(CCCCCCC(=O)Nc1ccccc1)NO,1.47 µM
14,Cc1ccc(-n2ncc3c(Nc4cccc(C(=O)O)c4)ncnc32)cc1,4.78 µM
15,COc1ccc(C(=O)COC(=O)c2sccc2C)cc1OC,11.8 µM
16,O=C(/C=C\c1ccc(-c2ccccc2)o1)c1ccccc1,4.16 µM
17,COc1cc(/C=C/c2ccc3cccc(O)c3n2)cc(OC)c1OC,13.7 µM
18,CN1CCSc2ccc(C(=O)Nc3cc(F)ccc3F)cc21,2.35 µM
19,O=C(NCCc1c[nH]c2ccccc12)c1cc2ccccc2oc1=O,13.4 µM
20,Fc1ccccc1-c1ccc(/C=N/Nc2nc3ccccc3[nH]2)o1,17.3 µM
21,CCOC(=O)c1c(C)[nH]c(C(=O)COC(=O)C2(C)CC2(Cl)Cl)c1C (stereo not given),6.45 µM
22,O=c1oc(CCO)cc2ccc(C#Cc3ccsc3)cc12,4.78 µM
23,COc1ccc2oc(C(=O)c3ccccc3)c(N)c2c1,7.18 µM
24,CNC(=O)c1ccsc1NC(=O)c1sc2ccccc2c1Cl,12.4 µM
25,CC(=O)Nc1ccc2nc3ccccc3nc2c1,15.3 µM
26,CCC(=O)NC1=C(Nc2ccc(N)cc2)C(=O)c2ccccc2C1=O,5.42 µM
